From ChEMBL document CHEMBL3886358, “Quinolyl-containing hydroxamic acid compound and preparation method thereof, and pharmaceutical composition containing this compound and use thereof” (2015)

How the values were obtained:
Format in all cases: cell-based
[1] = biological target: ALK tyrosine kinase receptor (Homo sapiens, UniProt Q9UM73); experiment: (§1) Sci. USA 1988, 85(23), 9312). Specific steps were as follows: The compound of the present invention was dissolved in dimethyl sulfoxide (DMSO) to make a stock solution of 2 mM, then the stock solution was diluted with DMSO following a 7 half-log series to concentrations ranging from 2 uM to 600 pM.
Sequence of ALK tyrosine kinase receptor (Q9UM73 whole entry): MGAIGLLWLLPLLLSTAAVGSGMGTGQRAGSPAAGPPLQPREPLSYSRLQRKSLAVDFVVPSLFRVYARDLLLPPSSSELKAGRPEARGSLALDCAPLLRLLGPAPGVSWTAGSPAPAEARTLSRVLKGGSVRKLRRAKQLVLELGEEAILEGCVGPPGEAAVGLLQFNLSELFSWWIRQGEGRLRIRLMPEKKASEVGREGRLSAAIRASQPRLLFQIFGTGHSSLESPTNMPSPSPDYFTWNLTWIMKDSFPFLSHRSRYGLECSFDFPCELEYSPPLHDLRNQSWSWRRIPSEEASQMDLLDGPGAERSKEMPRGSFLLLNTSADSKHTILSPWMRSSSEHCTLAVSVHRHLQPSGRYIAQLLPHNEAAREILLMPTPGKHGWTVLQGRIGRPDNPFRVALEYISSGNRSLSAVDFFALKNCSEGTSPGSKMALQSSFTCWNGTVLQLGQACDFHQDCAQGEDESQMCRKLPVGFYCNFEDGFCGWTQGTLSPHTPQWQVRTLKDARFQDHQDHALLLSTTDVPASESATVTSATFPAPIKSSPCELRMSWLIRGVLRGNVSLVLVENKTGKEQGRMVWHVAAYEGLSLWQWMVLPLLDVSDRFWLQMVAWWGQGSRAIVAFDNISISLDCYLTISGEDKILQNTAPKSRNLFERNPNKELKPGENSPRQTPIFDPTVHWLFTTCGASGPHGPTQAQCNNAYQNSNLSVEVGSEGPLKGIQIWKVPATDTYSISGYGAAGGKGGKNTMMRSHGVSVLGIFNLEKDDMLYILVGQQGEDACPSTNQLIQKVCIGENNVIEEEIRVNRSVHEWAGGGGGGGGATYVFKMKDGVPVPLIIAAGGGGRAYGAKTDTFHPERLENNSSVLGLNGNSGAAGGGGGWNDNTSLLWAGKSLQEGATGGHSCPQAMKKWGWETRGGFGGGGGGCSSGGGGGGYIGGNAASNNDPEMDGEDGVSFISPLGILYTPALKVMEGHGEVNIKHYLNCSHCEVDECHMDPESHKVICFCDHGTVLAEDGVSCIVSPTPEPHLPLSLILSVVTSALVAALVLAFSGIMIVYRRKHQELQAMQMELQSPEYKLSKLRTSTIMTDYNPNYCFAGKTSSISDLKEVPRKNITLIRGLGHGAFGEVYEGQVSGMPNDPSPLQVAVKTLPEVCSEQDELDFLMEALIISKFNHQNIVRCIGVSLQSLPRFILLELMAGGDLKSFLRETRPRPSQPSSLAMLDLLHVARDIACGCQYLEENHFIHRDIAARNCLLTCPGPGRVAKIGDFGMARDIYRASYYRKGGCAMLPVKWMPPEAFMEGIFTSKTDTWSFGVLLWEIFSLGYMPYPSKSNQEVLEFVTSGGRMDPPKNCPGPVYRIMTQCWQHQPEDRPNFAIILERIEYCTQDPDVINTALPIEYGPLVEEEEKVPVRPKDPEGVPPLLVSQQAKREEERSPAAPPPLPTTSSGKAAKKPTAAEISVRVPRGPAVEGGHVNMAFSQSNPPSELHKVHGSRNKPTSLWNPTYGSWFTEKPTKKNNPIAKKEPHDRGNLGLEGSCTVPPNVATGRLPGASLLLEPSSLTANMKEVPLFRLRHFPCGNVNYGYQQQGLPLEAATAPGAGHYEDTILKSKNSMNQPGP

[2] = biological target: Platelet-derived growth factor receptor beta (Homo sapiens, UniProt P09619); experiment: as §1
Sequence of Platelet-derived growth factor receptor beta (P09619 whole entry): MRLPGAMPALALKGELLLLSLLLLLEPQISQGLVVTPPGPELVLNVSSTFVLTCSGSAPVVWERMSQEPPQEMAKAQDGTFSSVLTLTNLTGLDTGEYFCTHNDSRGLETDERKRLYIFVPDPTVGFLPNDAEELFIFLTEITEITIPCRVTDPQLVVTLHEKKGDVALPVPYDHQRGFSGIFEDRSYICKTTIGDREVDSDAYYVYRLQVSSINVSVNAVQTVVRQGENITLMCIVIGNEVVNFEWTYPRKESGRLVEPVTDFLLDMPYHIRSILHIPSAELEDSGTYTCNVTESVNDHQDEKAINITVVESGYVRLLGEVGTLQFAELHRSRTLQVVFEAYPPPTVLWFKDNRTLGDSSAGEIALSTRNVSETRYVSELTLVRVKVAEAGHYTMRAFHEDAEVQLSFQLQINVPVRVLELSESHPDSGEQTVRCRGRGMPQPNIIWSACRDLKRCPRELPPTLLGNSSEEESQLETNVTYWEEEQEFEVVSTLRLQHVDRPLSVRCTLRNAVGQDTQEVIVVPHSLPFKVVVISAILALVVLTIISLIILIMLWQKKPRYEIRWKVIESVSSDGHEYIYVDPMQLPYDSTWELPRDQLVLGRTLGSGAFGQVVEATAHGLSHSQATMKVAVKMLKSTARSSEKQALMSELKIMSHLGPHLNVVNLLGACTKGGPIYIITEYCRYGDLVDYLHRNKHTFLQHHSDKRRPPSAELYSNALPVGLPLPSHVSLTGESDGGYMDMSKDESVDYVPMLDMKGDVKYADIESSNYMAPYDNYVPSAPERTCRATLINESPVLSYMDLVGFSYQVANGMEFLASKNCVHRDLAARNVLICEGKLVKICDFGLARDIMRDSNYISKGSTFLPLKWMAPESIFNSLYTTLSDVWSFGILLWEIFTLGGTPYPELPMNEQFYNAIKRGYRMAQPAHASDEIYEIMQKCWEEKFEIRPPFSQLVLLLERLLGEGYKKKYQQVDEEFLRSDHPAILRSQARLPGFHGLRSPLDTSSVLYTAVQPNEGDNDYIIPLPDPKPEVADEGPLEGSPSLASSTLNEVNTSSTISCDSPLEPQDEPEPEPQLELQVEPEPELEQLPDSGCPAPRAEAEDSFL

[3] = biological target: T1, Receptor-type tyrosine-protein kinase FLT3 (Homo sapiens, UniProt P36888); experiment: as §1
T1 sequence (P36888 whole entry): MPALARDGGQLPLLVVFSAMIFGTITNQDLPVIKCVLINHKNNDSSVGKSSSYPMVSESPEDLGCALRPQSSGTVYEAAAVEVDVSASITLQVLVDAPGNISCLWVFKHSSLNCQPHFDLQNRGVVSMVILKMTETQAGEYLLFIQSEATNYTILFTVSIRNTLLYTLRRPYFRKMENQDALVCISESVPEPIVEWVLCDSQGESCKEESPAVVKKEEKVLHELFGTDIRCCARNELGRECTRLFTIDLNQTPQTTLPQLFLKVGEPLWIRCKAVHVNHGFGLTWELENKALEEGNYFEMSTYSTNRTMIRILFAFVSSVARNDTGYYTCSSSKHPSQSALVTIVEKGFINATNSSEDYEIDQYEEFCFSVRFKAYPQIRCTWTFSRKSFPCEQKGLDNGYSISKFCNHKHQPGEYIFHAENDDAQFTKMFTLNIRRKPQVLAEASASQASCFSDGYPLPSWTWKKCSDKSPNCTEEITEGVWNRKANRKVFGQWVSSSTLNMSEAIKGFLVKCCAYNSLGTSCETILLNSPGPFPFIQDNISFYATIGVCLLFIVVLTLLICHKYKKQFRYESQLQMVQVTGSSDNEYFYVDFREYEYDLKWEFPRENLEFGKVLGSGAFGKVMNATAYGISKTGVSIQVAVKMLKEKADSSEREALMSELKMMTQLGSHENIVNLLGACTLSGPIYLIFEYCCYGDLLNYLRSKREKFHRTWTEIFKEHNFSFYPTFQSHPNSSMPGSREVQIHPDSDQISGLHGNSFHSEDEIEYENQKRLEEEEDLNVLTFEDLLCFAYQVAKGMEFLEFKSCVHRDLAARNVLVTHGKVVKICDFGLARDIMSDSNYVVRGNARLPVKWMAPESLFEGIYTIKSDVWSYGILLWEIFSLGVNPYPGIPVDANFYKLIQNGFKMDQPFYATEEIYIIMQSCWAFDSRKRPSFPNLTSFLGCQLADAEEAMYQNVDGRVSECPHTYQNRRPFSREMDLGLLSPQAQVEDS

[4] = biological target: Vascular endothelial growth factor receptor 2 (Homo sapiens, UniProt P35968); experiment: as §1
Sequence of Vascular endothelial growth factor receptor 2 (P35968 whole entry): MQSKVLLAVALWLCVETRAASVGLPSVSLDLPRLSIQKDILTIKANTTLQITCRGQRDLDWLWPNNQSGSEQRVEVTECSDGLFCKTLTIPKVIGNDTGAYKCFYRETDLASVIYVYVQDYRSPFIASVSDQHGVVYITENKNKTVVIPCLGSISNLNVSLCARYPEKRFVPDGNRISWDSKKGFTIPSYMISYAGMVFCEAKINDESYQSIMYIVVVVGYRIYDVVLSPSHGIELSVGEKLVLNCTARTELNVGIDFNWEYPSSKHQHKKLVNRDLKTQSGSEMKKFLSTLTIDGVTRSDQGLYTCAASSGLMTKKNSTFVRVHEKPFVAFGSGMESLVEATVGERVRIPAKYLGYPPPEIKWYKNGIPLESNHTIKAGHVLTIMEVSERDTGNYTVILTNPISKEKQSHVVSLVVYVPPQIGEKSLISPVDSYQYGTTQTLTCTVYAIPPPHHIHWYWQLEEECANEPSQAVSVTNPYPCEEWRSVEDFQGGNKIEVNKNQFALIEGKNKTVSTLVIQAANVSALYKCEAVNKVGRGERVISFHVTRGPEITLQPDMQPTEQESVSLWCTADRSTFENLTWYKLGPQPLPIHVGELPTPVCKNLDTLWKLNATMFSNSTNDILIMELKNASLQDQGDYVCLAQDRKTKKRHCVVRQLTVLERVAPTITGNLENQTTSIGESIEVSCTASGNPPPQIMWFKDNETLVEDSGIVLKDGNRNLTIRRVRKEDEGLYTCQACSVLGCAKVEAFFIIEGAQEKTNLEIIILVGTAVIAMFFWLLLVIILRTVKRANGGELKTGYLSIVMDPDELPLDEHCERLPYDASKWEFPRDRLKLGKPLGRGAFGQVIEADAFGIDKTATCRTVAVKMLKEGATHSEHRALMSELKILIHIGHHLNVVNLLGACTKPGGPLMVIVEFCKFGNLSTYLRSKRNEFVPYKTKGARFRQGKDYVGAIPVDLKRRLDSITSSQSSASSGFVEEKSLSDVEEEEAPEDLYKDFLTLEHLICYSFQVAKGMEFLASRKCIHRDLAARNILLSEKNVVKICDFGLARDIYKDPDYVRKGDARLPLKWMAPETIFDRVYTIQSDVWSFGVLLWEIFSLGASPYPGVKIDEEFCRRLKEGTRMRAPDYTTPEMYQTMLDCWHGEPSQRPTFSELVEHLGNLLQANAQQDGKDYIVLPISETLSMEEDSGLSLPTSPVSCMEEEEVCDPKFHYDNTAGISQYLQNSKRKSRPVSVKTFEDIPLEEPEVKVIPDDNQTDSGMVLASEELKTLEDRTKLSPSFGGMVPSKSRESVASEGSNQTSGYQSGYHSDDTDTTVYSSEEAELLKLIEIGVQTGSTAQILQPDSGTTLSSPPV

IC50 [1]: > 630 nM
IC50 [2]: 172 nM
IC50 [3]: 31 nM
IC50 [4]: 12 nM
Structure (SMILES): COc1cc2c(Oc3ccc(NC(=O)C4(C(=O)Nc5ccc(F)cc5)CC4)cc3F)ccnc2cc1OCCCC(=O)NO
